Source: ChEMBL document CHEMBL2021926, “Serendipity in discovery of proteasome inhibitors” (Bioorg Med Chem Lett, 2012)

Columns and labels:
[1] = Inhibition of chymotrypsin-like activity of 26S proteasome
[2] = Inhibition of chymotrypsin-like activity of human liver 26S proteasome using Suc-LLVY-AMC substrate
[3] = Inhibition of chymotrypsin-like activity of 26S proteasome in human Molt4 cells using MeOSuc-Phe-Leu-Phe-AFC substrate; type: cell-based; details: MOLT-4

SMILES	IC50 [1] [nM]	IC50 [2] [nM]	EC50 [3] [nM]
CC(C)C[C@@H](C=O)NC(=O)[C@H](CCCN/C(N)=N/[N+](=O)[O-])NC(=O)C(CCCCCCCCN1C(=O)c2ccccc2C1=O)C1CCCC1 (some centres undefined)	2	–	–
CC(C)C[C@@H](C=O)NC(=O)[C@H](CCCN/C(N)=N/[N+](=O)[O-])NC(=O)C(CCCCCCCCC#N)C1CCCC1 (some centres undefined)	6	–	–
CC(C)C[C@H](NC(=O)[C@H](CCCN/C(N)=N/[N+](=O)[O-])NC(=O)C(CCCCCCCCC#N)C1CCCC1)C(=O)C(=O)NCCNS(=O)(=O)c1ccccc1 (some centres undefined)	1	–	–
CC(C)C[C@H](NC(=O)[C@H](CCCN/C(N)=N/[N+](=O)[O-])NC(=O)C(CCCCCCCCC#N)C1CCCC1)B1OC(C)(C)C(C)(C)O1 (some centres undefined)	6	–	–
COCCOCCOCC(=O)N[C@H](C(=O)N[C@@H](CC(C)C)B1O[C@@H]2C[C@@H]3C[C@@H](C3(C)C)[C@]2(C)O1)[C@@H](C)O	–	> 10	–
CC(C)C[C@H](NC(=O)[C@@H](NC(=O)OC(C)(C)C)[C@@H](C)O)B1O[C@@H]2C[C@@H]3C[C@@H](C3(C)C)[C@]2(C)O1	–	> 10	–
CC(C)C[C@H](NC(=O)[C@@H](NC(=O)OCc1ccccc1)[C@@H](C)O)B1O[C@@H]2C[C@@H]3C[C@@H](C3(C)C)[C@]2(C)O1	–	> 10	–
CC(C)C[C@H](NC(=O)[C@@H](N)[C@@H](C)O)B1O[C@@H]2C[C@@H]3C[C@@H](C3(C)C)[C@]2(C)O1	–	> 10	–
CC(C)C[C@H](NC(=O)[C@@H](NC(=O)c1ccccc1)[C@@H](C)O)B1O[C@@H]2C[C@@H]3C[C@@H](C3(C)C)[C@]2(C)O1	–	> 10	–
CCCCCC(=O)N[C@H](C(=O)N[C@@H](CC(C)C)B1O[C@@H]2C[C@@H]3C[C@@H](C3(C)C)[C@]2(C)O1)[C@@H](C)O	–	> 10	–
CC(C)C[C@H](NC(=O)[C@@H](NC(=O)c1cnccn1)[C@@H](C)O)B1O[C@@H]2C[C@@H]3C[C@@H](C3(C)C)[C@]2(C)O1	–	> 10	–
CC(C)C[C@H](NC(=O)[C@H](CCCN/C(N)=N/[N+](=O)[O-])NC(=O)C(CCCCCCCCN1C(=O)c2ccccc2C1=O)C1CCCC1)B1OC2C[C@@H]3C[C@@H](C3(C)C)[C@]2(C)O1 (some centres undefined)	–	3.5	70
CC(C)C[C@H](NC(=O)[C@@H](NC(=O)C(CCCCCCCCN1C(=O)c2ccccc2C1=O)C1CCCC1)[C@@H](C)O)B1O[C@@H]2C[C@@H]3C[C@@H](C3(C)C)[C@]2(C)O1 (mixture of isomers)	–	7	100
CC(C)C[C@H](NC(=O)C(NC(=O)[C@H](CC(C)C)NC(=O)OCc1ccccc1)C(C)O)B1O[C@@H]2C[C@@H]3C[C@@H](C3(C)C)[C@]2(C)O1 (single isomer, unassigned)	–	1	120
CC(C)C[C@H](NC(=O)[C@H](Cc1ccccc1)NC(=O)c1cnccn1)B(O)O [BORTEZOMIB]	–	4	21
